Assay results as given in patent US20150352108A1, “AMINO-PYRIMIDINE COMPOUNDS AS INHIBITORS OF TBK1 AND/OR IKK EPSILON” (Alzheimer's Institute of America, priority 2009, published 2015).
Read-outs that look alike come from different tables or passages of the source.

Legend:
IKKε = molecular target: T1, IKKε (Homo sapiens, UniProt Q14164); experiment: In-vitro IKKε kinase assay ([γ33]ATP filter-plate); type: biochemical
T1 construct: His-tag; made in house; host or cells: Sf9 insect cells
T1 sequence (Q14164 1-716): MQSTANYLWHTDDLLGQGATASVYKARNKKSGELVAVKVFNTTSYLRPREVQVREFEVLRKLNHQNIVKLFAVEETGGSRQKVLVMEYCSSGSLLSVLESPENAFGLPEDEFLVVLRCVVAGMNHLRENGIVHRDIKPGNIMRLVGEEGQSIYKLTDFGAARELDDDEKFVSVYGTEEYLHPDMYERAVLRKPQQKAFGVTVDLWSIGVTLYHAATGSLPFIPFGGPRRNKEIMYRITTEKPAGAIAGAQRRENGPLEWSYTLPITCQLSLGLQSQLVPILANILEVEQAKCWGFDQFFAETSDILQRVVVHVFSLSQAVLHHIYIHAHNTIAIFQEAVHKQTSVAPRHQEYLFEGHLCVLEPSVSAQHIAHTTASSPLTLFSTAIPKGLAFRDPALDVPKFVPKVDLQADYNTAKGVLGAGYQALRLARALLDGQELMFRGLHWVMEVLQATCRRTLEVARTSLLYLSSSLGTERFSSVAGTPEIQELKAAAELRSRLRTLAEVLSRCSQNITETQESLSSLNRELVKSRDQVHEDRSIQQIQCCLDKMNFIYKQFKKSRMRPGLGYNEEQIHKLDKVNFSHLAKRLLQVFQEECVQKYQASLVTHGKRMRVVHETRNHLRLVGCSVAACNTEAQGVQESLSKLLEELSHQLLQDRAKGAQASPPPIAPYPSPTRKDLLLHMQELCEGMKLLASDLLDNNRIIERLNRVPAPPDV
Procedure, shortened: (§1)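 His-tagged Sf9-expressed kinases at 0.1 or 0.02 μg/ml (TBK1) and 0.1 or 0.015 μg/ml (IKKε) for normal and sensitized formats, with myelin basic protein or casein substrate. ATP was at 2×Km (60 μM TBK1, 32 μM IKKε) plus 0.3 μCi [γ33]ATP. Reactions ran 30-45 min, were captured on P-81 filters, and counts were normalized to DMSO.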

[1] = test system: IKKε-mediated phosphorylation of IRF3; experiment: In-situ phosphorylation of IRF3 (pIRF3 Ser396 ELISA) in HEK293T cells cotransfected with IRF3 and IKKε; type: cell-based; conditions: Homo sapiens, HEK-293T
Procedure, shortened: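 Cells for the IRF7 Western blots carried IRF7 and TBK1 plasmids, were seeded at 150,000/well, exposed to compound overnight and probed for pSer477/Ser479 IRF7. The ELISA readout used IRF3 + IKKε-cotransfected HEK293T at 20,000/well with 20 h treatment, quantifying pSer396 IRF3 relative to DMSO, plus a parallel CellTiter-Glo viability check.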

TBK1 = molecular target: T2, TBK1 (Homo sapiens, UniProt Q9UHD2); experiment: In-vitro TBK1 kinase assay ([γ33]ATP filter-plate); type: biochemical
T2 construct: His-tag; made in house; host or cells: Sf9 insect cells
T2 sequence (Q9UHD2 1-729): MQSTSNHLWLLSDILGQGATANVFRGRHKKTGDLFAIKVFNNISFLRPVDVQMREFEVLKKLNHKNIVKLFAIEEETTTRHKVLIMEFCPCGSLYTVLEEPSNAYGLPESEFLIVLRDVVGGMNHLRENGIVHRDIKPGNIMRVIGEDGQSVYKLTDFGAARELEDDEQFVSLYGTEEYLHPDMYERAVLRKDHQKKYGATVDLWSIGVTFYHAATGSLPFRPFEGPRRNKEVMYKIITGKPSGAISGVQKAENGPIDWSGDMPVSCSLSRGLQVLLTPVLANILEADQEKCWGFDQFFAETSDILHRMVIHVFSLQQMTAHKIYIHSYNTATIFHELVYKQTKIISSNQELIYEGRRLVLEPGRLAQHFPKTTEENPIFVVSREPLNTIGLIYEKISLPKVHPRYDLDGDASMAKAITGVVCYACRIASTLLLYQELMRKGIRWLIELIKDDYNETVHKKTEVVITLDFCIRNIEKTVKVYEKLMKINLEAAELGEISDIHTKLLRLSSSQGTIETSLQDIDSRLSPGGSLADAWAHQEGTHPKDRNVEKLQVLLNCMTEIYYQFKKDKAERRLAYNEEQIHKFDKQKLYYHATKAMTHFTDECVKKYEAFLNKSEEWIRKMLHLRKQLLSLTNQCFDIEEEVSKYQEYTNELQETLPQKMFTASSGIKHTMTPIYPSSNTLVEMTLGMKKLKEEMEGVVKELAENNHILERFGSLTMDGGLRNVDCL
Procedure, shortened: as §1

[2] = text bins, read-out: IC50 for inhibition of the kinase activity of IKKε
[3] = HEK293T cells, 20 hours, text bins, read-out: IC50 for inhibition of the in-situ IKKε-mediated phosphorylation of IRF3
[4] = text bins, read-out: IC50 for inhibition of the kinase activity of TBK1
[5] = HEK293T cells in culture, Table 3, read-out: pIRF3 ELISA IC50

Row | SMILES | IC50 (IKKε; [2]) | IC50 [1, 3] | IC50 (TBK1; [4]) | IC50 (IKKε; Table 3, read-out: IKKε IC50) | IC50 [1, 5] | IC50 (TBK1; Table 3, read-out: TBK1 IC50)
1 | COc1cc(Nc2nccc(-c3ccc(OC4CCN(C(=O)CO)C4)c(C#N)c3)n2)ccc1N1CCOCC1 (stereo not drawn) [Example 223, 2-{[1-(hydroxyacetyl)pyrrolidin-3-yl]oxy}-5-(2-{[3-methoxy-4-(morpholin-4-yl)phenyl]amino}pyrimidin-4-yl)benzonitrile] | < 5 nM | < 100 nM | < 10 nM |  |  | 
2 | COc1cc(Nc2nccc(-c3ccc(OC4CCOCC4)c(C#N)c3)n2)ccc1C(=O)N1CC(N(C)C)C1 [compound 377, 5-{2-[(4-{[3-(dimethylamino)azetidin-1-yl]carbonyl}-3-methoxyphenyl)amino]pyrimidin-4-yl}-2-(tetrahydro-2H-pyran-4-yloxy)benzonitrile] | < 5 nM | 100 to 250 nM | < 10 nM |  |  | 
3 | N#Cc1cc(-c2ccnc(Nc3ccc(N4CCOCC4)cc3)n2)ccc1OC1CCN(S(N)(=O)=O)C1 (stereo not drawn) [Example 225, 3-[2-cyano-4-(2-{[4-(morpholin-4-yl)phenyl]amino}pyrimidin-4-yl)phenoxy]pyrrolidine-1-sulfonamide] | < 5 nM | 100 to 250 nM | < 10 nM |  |  | 
4 | COc1ccc(Nc2nccc(-c3ccc(OC4CCOCC4)c(C#N)c3)n2)cc1OCCCC1CCN(C(C)C)CC1 [compound 520, 5-{2-[(4-medthoxy-3-{3-[1-(propan-2-yl)piperidin-4-yl]propoxy}phenyl)amino]pyrimidin-4-yl}-2-(tetrahydro-2H-pyran-4-yloxy)benzonitrile] | < 5 nM | < 100 nM | < 10 nM |  |  | 
5 | COc1cc(Nc2nccc(-c3ccc(OC4CCOCC4)c(C#N)c3)n2)ccc1OCCOCCNS(=O)(=O)N1CCN(C)CC1 [Example 27, N-(2-{2-[4-({4-[3-cyano-4-(tetrahydro-2H-pyran-4-yloxy)phenyl]pyrimidin-2-yl}amino)-2-methoxyphenoxy]ethoxy}ethyl)-4-methylpiperazine-1-sulfonamide] | < 5 nM | 250 to 500 nM | < 10 nM |  |  | 
6 | COc1cc(Nc2nccc(-c3ccc(OC4CCOCC4)c(C#N)c3)n2)ccc1S(=O)(=O)N1CCCN(C)CC1 [compound 392, 5-[2-({3-Methoxy-4-[(4-methyl-1,4-diazepan-1-yl)sulfonyl]phenyl}amino)pyrimidin-4-yl]-2-(tetrahydro-2H-pyran-4-yloxy)benzonitrile] | < 5 nM | < 100 nM | < 10 nM | 0.2 nM | 12.2 nM | 0.2 nM
7 | COc1cc(Nc2nccc(-c3ccc(OC4CCN(C(=O)[C@H](C)O)CC4)c(C#N)c3)n2)ccc1N1CCOCC1 [Example 208, 2-({1-[(2S)-2-hydroxypropanoyl]piperidin-4-yl}oxy)-5-(2-{[3-methoxy-4-(morpholin-4-yl)phenyl]amino}pyrimidin-4-yl)benzonitrile] | < 5 nM | 250 to 500 nM | < 10 nM |  |  | 
8 | COCCNC(=O)c1ccc(Nc2nccc(-c3ccc(NC(=O)C4CC4)c(C#N)c3)n2)cc1 [compound 537] | 5 to 50 nM | 100 to 250 nM | 10 to 100 nM |  |  | 
9 | COCCNCc1ccc(Nc2nccc(-c3ccc(OC4CCOCC4)c(C#N)c3)n2)cc1OC [compound 478, 5-{2-[(3-Methoxy-4-{[(2-methoxyethyl)amino]methyl}phenyl)amino]pyrimidin-4-yl}-2-(tetrahydro-2H-pyran-4-yloxy)benzonitrile] | < 5 nM | < 100 nM | < 10 nM |  |  | 
10 | CCOC(=O)C(C)NCc1ccc(Nc2nccc(-c3ccc(OC4CCOCC4)c(C#N)c3)n2)cc1 (stereo not drawn) [compound 489, ethyl N-[4-({4-[3-cyano-4-(tetrahydro-2H-pyran-4-yloxy)phenyl]pyrimidin-2-yl}amino)benzyl] alaninate] | < 5 nM | 100 to 250 nM | < 10 nM |  |  | 
11 | Cc1ccc(Nc2nccc(-c3ccc(OC4CCOCC4)c(C#N)c3)n2)cc1OCCN1CCN(C(C)C)CC1 [compound 597, 5-{2-[(4-Methyl-3-{2-[4-(propan-2-yl)piperazin-1-yl]ethoxy}phenyl)amino]pyrimidin-4-yl}-2-(tetrahydro-2H-pyran-4-yloxy)benzonitrile] | < 5 nM | 100 to 250 nM | < 10 nM |  |  | 
12 | COc1cc(Nc2nccc(-c3ccc(OC4CCOCC4)c(C#N)c3)n2)ccc1S(=O)(=O)NCCCN1CCOCC1 [Example 176] | < 5 nM | < 100 nM | < 10 nM | 0.9 nM | 12.5 nM | 0.3 nM
13 | COc1cc(Nc2nccc(-c3ccc(OC4CCN(C(=O)CO)CC4)c(C#N)c3)n2)ccc1N1CCOCC1 [Example 59, 2-{[1-(hydroxyacetyl)piperidin-4-yl]oxy}-5-(2-{[3-methoxy-4-(morpholin-4-yl)phenyl]amino}pyrimidin-4-yl)benzonitrile] | < 5 nM | < 100 nM | < 10 nM | 0.2 nM | 16.2 nM | 0.4 nM
14 | COc1ccc(Nc2nccc(-c3ccc(OC4CCOCC4)c(C#N)c3)n2)cc1OCCCN1CCOCC1 [compound 529, 5-[2-({4-methoxy-3-[3-(morpholin-4-yl)propoxy]phenyl}amino)pyrimidin-4-yl]-2-(tetrahydro-2H-pyran-4-yloxy)benzonitrile] | < 5 nM | < 100 nM | < 10 nM |  |  | 
15 | N#Cc1cc(-c2ccnc(Nc3ccc(CN)cc3)n2)ccc1OC1CCOCC1 [compound 486, 5-(2-{[4-(aminomethyl)phenyl]amino}pyrimidin-4-yl)-2-(tetrahydro-2H-pyran-4-yloxy)benzonitrile] | < 5 nM | 250 to 500 nM | < 10 nM |  |  | 
16 | N#Cc1cc(-c2ccnc(Nc3cccc(NC(=O)N4CCC(O)C4)c3)n2)ccc1OC1CCOCC1 (stereo not drawn) [compound 536, N-[3-({4-[3-Cyano-4-(tetrahydro-2H-pyran-4-yloxy)phenyl]pyrimidin-2-yl}amino)phenyl]-3-hydroxypyrrolidine-1-carboxamide] | < 5 nM | < 100 nM | < 10 nM | 0.3 nM | 61.9 nM | 1.3 nM
17 | N#Cc1cc(-c2ccnc(Nc3ccc(CO)cc3)n2)ccc1OC1CCOCC1 [compound 499, 5-(2-{[4-(hydroxymethyl)phenyl]amino}pyrimidin-4-yl)-2-(tetrahydro-2H-pyran-4-yloxy)benzonitrile] | 5 to 50 nM | 100 to 250 nM | < 10 nM | 5.1 nM | 142 nM | 0.5 nM
18 | COc1cc(Nc2nccc(-c3ccc(NC(=O)C(C)C)c(C#N)c3)n2)ccc1OCCCN1CCOCC1 [compound 434, N-{2-cyano-4-[2-({3-methoxy-4-[3-(morpholin-4-yl)propoxy]phenyl}amino)pyrimidin-4-yl]phenyl}-2-methylpropanamide] | 5 to 50 nM | < 100 nM | < 10 nM |  |  | 
